Experimental data published in patent US20140323573A1, “METABOLIZABLE SALTS AND USE THEREOF IN DIAGNOSTICS AND THERAPY” (priority 2011, published 2014).
Structures can show the parent of a compound that is named as a salt. Where two headings read alike, the source gives them in different places.

Columns and labels:
[1] = cited from earlier work; for pK-values (first value) / pK-values (second value) / pK-values (third value): Table I, 37° C.
[2] = Buffer properties / acid-base data of 0.1 molar salt solutions (37° C.); conditions: 0.1 molar solution; for NaOH ΔpH 7.2-7.6: NaOH necessary for ΔpH of 7.2-7.6; for Titr. on 7.4: NaOH necessary to set pH 7.4; for β (at 7.4) buffer capacity: calculated from NaOH for ΔpH 7.2-7.6
Text: NaOH mmol/l for ΔpH of 7.2-7.6: how much NaOH in mmol/l is necessary for that ΔpH.
2. β (mmol/l/pH): the buffer capacity calculated therefrom at pH 7.40.
Titr on 7.4 (mmol/l): how much NaOH is necessary to set a pH-value of 7.4.
If a physiological pH-value of 7.4 is to be set in a 0.1 molar solution then the corresponding additives are specified in the column Titration pH=7.4. It is therefore specified how much NaOH (mmol/l) is to be added to set that pH-value.

[3] = Osmotic coefficient and osmolality of solutions; assay type: physicochemical
Text: a) Osmotic Coefficients of Compounds According to the Invention and not According to the Invention

[4] = 0.1 molar solution, (literature); cited from earlier work
[5] = Feed of bicarbonate: arginine / arginine acetate solution equilibrated with CO2; assay type: physicochemical; conditions: ionic strength 160 mmol/l and 37° C.
Experimental: If a solution with 48 mmol/l arginine is mixed with 24 mmol/l acetic acid that gives a mixture respectively comprising 24 mmol/l arginine and arginine acetate with a pH-value of about 8.6. That pH-value corresponds to the effective pK value of arginine (ionic strength 160 mmol/l and 37° C.). If that solution is necessarily equilibrated after infusion in the patient to a pCO2 of about 40 mmHg a maximum of 24 mmol/l arginine HCO3 will occur. Thus the physiological values of about 24 mmol/l HCO3 and a pH-value of about 7.4 will occur (for comparison arginine equilibration with pure CO2 in Table 1).

## O=C(O)O [HCO3^−]
[1]
  pK: 6.1

## CC(=O)O [acetic acid]
[1]
  pK-values (first value): 4.6

## NC(CO)(CO)CO [Tris]
[1]
  pK: 8.2

## O=C(O)CC(O)C(=O)O (stereo not shown) [malic acid]
[1]
  pK-values (first value): 3.5
  pK-values (second value): 4.7

## CC(=O)O.N=C(N)NCCC[C@H](N)C(=O)O [Arg acetate, arginine acetate]
[1]
  pK: 4.6
[2]
  pH: 5.99
  NaOH ΔpH 7.2-7.6: 2.8 mmol/L
  Titr. on 7.4: 7.3 mmol/L
  β (at 7.4) buffer capacity: 7.0 mmol/l/pH

## [Cl-].[Na+] [NaCl]
[3]
  Osmot. valence: 2
[4]
  Osmot. coefficient: 0.926

## N [NH4^+]
[1]
  pK: 9.0

## O=C(O)O [carbonic acid]
[1]
  pK-values (first value): 6.1

## N=C(N)NCCC[C@H](N)C(=O)O.O=C(O)O [Arg HCO3]
[3]
  Osmot. valence: 2
[3]; 0.1 molar solution
  Osmot. coefficient: 0.833
[3]; 0.2 m, 100% CO2 at 37° C.
  Osmot. coefficient: 0.2 m 0.833 100% CO2 at 37 °C
[3]; 0.3 m, 100% CO2 at 37° C.
  Osmot. coefficient: 0.3 m 0.763 100% CO2 at 37 °C

## N=C(N)NCCC[C@H](N)C(=O)O [Arginine, arginine]
[3]
  Osmot. valence: 1
[3]; 0.1 molar solution
  Osmot. coefficient: 0.980
  osmolality: 98 mosmol/kg H2O
[5]
  effective pK value: about 8.6
[1]
  pK-values (first value): 2.0
  pK-values (second value): 9.0
  pK-values (third value): 12.1
[2]
  pH: 10.26

## O=C([O-])O.[Na+] [NaHCO3]
[3]
  Osmot. valence: 2
[3]; 0.1 molar solution, (assumed)
  Osmot. coefficient: 0.926

## CC(=O)O.NCCCC[C@H](N)C(=O)O [Lysine Acetate, lysine acetate]
[2]
  pH: 5.99
  NaOH ΔpH 7.2-7.6: 2.5 mmol/L
  Titr. on 7.4: 6.8 mmol/L
  β (at 7.4) buffer capacity: 6.3 mmol/l/pH

## O=C(O)CC(O)(CC(=O)O)C(=O)O [citric acid]
[3]
  Osmot. valence: 3
[3]; 0.1 molar solution
  Osmot. coefficient: 0.555
[1]
  pK-values (first value): 3.0
  pK-values (second value): 4.4
  pK-values (third value): 5.8

## O=C(O)CC(O)(CC(=O)O)C(=O)O [Na3 citrate]
[3]
  Osmot. valence: 4
[3]; 0.1 molar solution
  Osmot. coefficient: 0.681

## NCCCC[C@H](N)C(=O)O [Lysine, lysine]
[3]
  Osmot. valence: 1
[3]; 0.1 molar solution
  Osmot. coefficient: 1.000
[1]
  pK-values (first value): 2.2
  pK-values (second value): 8.9
  pK-values (third value): 10.3
[2]
  pH: 9.55

## O=C(O)CC(O)(CC(=O)O)C(=O)O [K3 citrate]
[3]
  Osmot. valence: 4
[3]; 0.1 molar solution
  Osmot. coefficient: 0.681

## Cl.N=C(N)NCCC[C@H](N)C(=O)O [Arg HCl, arginine hydrochloride]
[3]
  Osmot. valence: 2
[3]; 0.1 molar solution
  Osmot. coefficient: 0.895

## O=C(O)CC(O)(CC(=O)O)C(=O)O [Lys3 citrate, tri-lysine citrate]
[3]; 0.1 molar solution
  Osmot. coefficient: 0.715
[2]
  pH: 6.88
  NaOH ΔpH 7.2-7.6: 5.9 mmol/L
  Titr. on 7.4: 5.8 mmol/L
  β (at 7.4) buffer capacity: 14.8 mmol/l/pH

## O=S(=O)(O)CCN1CCN(CCO)CC1 [Hepes]
[1]
  pK: 7.35
